≈ marks a conversion by molar mass, not a printed value.
Legend:
[1] = target: Aurora kinase A (Homo sapiens) (UniProt O14965); test: Inhibition of wild-type human partial length AURKA (E122 to K401 residues) expressed in mammalian expression system assessed as residual activity at 1 uM by Kinomescan method relative to control
[2] = target: Mitogen-activated protein kinase 1 (Homo sapiens) (UniProt P28482); test: Inhibition of wild-type human full length ERK2 (M1 to S360 residues) expressed in bacterial expression system assessed as residual activity at 1 uM by Kinomescan method relative to control
Chain of Mitogen-activated protein kinase 1 (Homo sapiens) (P28482 whole entry, the tested form may be a part): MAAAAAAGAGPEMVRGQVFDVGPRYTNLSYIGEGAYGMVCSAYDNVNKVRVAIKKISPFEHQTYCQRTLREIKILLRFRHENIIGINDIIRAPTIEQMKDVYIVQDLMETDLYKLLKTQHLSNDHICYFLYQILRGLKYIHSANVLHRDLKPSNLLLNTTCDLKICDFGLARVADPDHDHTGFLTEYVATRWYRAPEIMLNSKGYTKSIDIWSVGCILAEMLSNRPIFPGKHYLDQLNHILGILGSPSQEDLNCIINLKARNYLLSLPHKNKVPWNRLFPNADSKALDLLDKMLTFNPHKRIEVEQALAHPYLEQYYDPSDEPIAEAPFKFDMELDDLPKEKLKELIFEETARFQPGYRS

[3] = target: Serine/threonine-protein kinase DCLK1 (Homo sapiens) (UniProt O15075); test: Inhibition of wild-type human partial length DCAMKL1 (L270 to A662 residues) expressed in mammalian expression system assessed as residual activity at 1 uM by Kinomescan method relative to control
[4] = target: Phosphorylase b kinase gamma catalytic chain, liver/testis isoform (Homo sapiens) (UniProt P15735); test: Inhibition of wild-type human partial length PHKG2 (M1 to W300 residues) expressed in bacterial expression system assessed as residual activity at 1 uM by Kinomescan method relative to control
[5] = target: Calcium/calmodulin-dependent protein kinase type II subunit delta (Homo sapiens) (UniProt Q13557); test: Inhibition of wild-type human partial length CAMK2D (M1 to E329 residues) expressed in bacterial expression system assessed as residual activity at 1 uM by Kinomescan method relative to control
[6] = Solubility of the compound in FaSSIF measured after 4 hrs; assay type: physicochemical
[7] = target: Casein kinase I isoform epsilon (Homo sapiens) (UniProt P49674); test: Inhibition of CK1epsilon (unknown origin) assessed as residual activity at 1 uM by Kinomescan method relative to control
[8] = target: RAF proto-oncogene serine/threonine-protein kinase (Homo sapiens) (UniProt P04049); test: Inhibition of wild-type human partial length RAF1 (I330 to T640 residues) expressed in bacterial expression system assessed as residual activity at 1 uM by Kinomescan method relative to control
[9] = target: Protein kinase C gamma type (Homo sapiens) (UniProt P05129); test: Inhibition of PKCgamma (unknown origin) assessed as residual activity at 1 uM by Kinomescan method relative to control
[10] = target: Serine/threonine-protein kinase LATS1 (Homo sapiens) (UniProt O95835); test: Inhibition of wild-type human partial length LATS1 (Q678 to V1130 residues) expressed in bacterial expression system assessed as residual activity at 1 uM by Kinomescan method relative to control
Chain of Serine/threonine-protein kinase LATS1 (Homo sapiens) (O95835 whole entry, the tested form may be a part): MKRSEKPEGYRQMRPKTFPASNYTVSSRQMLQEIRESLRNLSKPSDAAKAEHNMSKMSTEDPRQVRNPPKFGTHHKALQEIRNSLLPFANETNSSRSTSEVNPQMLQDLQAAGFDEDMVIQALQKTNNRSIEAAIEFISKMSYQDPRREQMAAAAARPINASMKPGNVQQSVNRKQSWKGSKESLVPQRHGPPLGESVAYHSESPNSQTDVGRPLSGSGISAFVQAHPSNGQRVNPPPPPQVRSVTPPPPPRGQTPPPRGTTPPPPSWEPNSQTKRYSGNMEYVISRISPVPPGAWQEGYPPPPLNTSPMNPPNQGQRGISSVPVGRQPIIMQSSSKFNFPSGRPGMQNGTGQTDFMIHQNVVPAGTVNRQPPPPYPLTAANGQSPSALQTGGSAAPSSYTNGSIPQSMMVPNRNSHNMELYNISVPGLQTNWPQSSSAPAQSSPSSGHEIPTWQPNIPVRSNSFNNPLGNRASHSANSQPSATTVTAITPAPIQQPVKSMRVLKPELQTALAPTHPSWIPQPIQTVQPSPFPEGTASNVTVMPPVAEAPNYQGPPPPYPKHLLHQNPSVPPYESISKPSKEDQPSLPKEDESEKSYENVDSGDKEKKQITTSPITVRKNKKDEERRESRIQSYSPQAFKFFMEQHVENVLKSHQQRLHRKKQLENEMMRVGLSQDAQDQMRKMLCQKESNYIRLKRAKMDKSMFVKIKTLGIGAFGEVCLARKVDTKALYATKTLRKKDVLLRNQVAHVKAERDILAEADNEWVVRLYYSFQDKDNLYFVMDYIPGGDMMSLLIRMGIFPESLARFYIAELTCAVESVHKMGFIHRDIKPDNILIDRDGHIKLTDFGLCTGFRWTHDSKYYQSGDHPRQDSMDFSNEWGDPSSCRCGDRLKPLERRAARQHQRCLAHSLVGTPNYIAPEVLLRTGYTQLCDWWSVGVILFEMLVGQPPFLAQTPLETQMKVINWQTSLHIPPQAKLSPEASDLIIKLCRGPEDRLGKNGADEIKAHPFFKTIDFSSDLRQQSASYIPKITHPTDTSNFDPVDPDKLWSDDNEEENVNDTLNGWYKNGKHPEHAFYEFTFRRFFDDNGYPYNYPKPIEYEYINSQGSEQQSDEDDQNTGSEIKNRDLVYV

[11] = target: Serine/threonine-protein kinase 33 (Homo sapiens) (UniProt Q9BYT3); test: Inhibition of wild-type human full length STK33 (M1 to L514 residues) expressed in bacterial expression system assessed as residual activity at 1 uM by Kinomescan method relative to control
[12] = target: Serine/threonine-protein kinase PAK 6 (Homo sapiens) (UniProt Q9NQU5); test: Inhibition of wild-type human partial length PAK6 (N298 to C681 residues) expressed in bacterial expression system assessed as residual activity at 1 uM by Kinomescan method relative to control
[13] = target: Calcium/calmodulin-dependent protein kinase type 1D (Homo sapiens) (UniProt Q8IU85); test: Inhibition of wild-type human partial length CAMK1D (M1 to K299 residues) expressed in bacterial expression system assessed as residual activity at 1 uM by Kinomescan method relative to control
[14] = target: Serine/threonine-protein kinase MARK2 (Homo sapiens) (UniProt Q7KZI7); test: Inhibition of wild-type human partial length MARK2 (M1 to R450 residues) expressed in bacterial expression system assessed as residual activity at 1 uM by Kinomescan method relative to control
[15] = target: Tyrosine-protein kinase ABL1 (Homo sapiens) (UniProt P00519); test: Inhibition of human ABL1 expressed in mammalian expression system assessed as residual activity at 1 uM by Kinomescan method relative to control
[16] = target: Serine/threonine-protein kinase VRK2 (Homo sapiens) (UniProt Q86Y07); test: Inhibition of wild-type human partial length VRK2 (M1 to T336 residues) expressed in mammalian expression system assessed as residual activity at 1 uM by Kinomescan method relative to control
Chain of Serine/threonine-protein kinase VRK2 (Homo sapiens) (Q86Y07 whole entry, the tested form may be a part): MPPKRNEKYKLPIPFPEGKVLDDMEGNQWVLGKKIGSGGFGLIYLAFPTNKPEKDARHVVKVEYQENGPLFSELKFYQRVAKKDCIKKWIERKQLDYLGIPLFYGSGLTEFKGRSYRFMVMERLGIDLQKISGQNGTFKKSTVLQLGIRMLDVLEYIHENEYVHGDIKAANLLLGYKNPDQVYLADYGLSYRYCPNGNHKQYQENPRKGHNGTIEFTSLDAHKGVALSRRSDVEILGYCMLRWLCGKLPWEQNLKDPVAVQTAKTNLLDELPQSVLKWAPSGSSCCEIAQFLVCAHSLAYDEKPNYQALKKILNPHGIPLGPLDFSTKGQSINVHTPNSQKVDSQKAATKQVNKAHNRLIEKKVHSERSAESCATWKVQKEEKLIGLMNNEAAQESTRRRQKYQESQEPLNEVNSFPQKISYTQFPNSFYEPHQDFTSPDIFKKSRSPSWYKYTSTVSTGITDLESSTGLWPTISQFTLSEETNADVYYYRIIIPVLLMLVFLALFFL

[17] = target: RAC-beta serine/threonine-protein kinase (Homo sapiens) (UniProt P31751); test: Inhibition of wild-type human partial length AKT2 expressed in bacterial expression system assessed as residual activity at 1 uM by Kinomescan method relative to control
Chain of RAC-beta serine/threonine-protein kinase (Homo sapiens) (P31751 whole entry, the tested form may be a part): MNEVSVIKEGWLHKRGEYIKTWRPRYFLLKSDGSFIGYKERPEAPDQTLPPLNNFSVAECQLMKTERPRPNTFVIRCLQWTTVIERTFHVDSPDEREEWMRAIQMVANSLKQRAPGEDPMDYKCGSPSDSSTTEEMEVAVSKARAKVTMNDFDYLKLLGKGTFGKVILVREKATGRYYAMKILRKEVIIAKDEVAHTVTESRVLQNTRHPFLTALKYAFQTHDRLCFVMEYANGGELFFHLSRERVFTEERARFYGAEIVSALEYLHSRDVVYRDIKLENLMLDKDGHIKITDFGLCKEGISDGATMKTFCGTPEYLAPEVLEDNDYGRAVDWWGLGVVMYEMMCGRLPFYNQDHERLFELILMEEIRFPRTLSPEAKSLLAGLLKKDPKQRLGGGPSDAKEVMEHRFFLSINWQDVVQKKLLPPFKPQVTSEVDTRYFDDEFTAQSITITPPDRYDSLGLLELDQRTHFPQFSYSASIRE

[18] = target: Dual specificity mitogen-activated protein kinase kinase 2 (Homo sapiens) (UniProt P36507); test: Inhibition of wild-type human full length MEK2 (M1 to V400 residues) expressed in mammalian expression system assessed as residual activity at 1 uM by Kinomescan method relative to control
[19] = target: Bone morphogenetic protein receptor type-1A (Homo sapiens) (UniProt P36894); test: Inhibition of wild-type human partial length BMPR1A (Q214 to I532 residues) expressed in bacterial expression system assessed as residual activity at 1 uM by Kinomescan method relative to control
[20] = target: Inhibitor of nuclear factor kappa-B kinase subunit alpha (Homo sapiens) (UniProt O15111); test: Inhibition of wild-type human full length IKK-alpha (M1 to E745 residues) expressed in mammalian expression system assessed as residual activity at 1 uM by Kinomescan method relative to control
Chain of Inhibitor of nuclear factor kappa-B kinase subunit alpha (Homo sapiens) (O15111 whole entry, the tested form may be a part): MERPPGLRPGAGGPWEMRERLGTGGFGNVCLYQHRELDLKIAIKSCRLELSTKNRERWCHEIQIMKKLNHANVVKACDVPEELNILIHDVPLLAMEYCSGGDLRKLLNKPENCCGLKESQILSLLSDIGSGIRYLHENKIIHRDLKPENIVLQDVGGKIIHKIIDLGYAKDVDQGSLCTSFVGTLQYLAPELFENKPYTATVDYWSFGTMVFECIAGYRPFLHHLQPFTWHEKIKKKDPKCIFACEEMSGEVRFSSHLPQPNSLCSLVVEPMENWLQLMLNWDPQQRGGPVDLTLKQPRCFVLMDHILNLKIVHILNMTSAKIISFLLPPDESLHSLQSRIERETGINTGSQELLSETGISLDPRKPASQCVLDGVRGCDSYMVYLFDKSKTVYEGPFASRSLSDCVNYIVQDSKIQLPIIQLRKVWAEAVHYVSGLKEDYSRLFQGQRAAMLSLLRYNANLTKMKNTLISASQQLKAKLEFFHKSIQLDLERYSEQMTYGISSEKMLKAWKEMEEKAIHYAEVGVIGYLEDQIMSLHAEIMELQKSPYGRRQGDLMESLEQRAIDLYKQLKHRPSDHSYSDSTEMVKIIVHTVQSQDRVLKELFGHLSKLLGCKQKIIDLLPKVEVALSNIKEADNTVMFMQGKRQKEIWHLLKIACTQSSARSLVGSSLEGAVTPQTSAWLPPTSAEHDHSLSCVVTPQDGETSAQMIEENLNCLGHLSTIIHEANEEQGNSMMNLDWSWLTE

[21] = target: Macrophage colony-stimulating factor 1 receptor (Homo sapiens) (UniProt P07333); test: Inhibition of FMS (unknown origin) assessed as residual activity at 1 uM by Kinomescan method relative to control
Cytochrome P450 3A4 = Cytochrome P450 3A4 (Homo sapiens, UniProt P08684); test: Inhibition of human CYP3A4; assay type: ADME
Chain of Cytochrome P450 3A4 (P08684 whole entry, the tested form may be a part): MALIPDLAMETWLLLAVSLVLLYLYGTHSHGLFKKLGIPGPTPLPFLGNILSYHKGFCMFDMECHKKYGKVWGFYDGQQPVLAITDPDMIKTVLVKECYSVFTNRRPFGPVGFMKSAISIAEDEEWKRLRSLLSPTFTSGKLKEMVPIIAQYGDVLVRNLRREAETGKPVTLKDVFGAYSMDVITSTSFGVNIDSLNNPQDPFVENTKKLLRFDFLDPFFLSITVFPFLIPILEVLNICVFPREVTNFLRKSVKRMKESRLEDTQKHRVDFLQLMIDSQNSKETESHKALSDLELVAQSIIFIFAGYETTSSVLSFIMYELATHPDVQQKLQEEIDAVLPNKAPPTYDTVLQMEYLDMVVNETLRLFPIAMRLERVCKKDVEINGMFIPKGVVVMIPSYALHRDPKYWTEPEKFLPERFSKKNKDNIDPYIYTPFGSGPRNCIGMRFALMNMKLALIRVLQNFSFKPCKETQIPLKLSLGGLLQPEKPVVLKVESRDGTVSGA

[22] = target: Serine/threonine-protein kinase B-raf (Homo sapiens) (UniProt P15056); test: Inhibition of wild type human BRAF (S429 to E741 residues) expressed in bacterial expression system assessed as residual activity at 1 uM by Kinomescan method relative to control
[23] = target: CDK9/Cyclin K (Homo sapiens) (UniProt P50750+O75909); test: Inhibition of wild-type human full length CDK9 (M1 to F372 residues)/cyclin K expressed in bacterial expression system assessed as residual activity at 1 uM by Kinomescan method relative to control
[24] = target: Serine/threonine-protein kinase 38-like (Homo sapiens) (UniProt Q9Y2H1); test: Inhibition of wild-type human partial length NDR2 (N34 to E447 residues) expressed in bacterial expression system assessed as residual activity at 1 uM by Kinomescan method relative to control
[25] = target: Mast/stem cell growth factor receptor Kit (Homo sapiens) (UniProt P10721); test: Inhibition of c-kit (unknown origin) assessed as residual activity at 1 uM relative to control
[26] = target: Mitogen-activated protein kinase kinase kinase 2 (Homo sapiens) (UniProt Q9Y2U5); test: Inhibition of MEKK2 (unknown origin) assessed as residual activity at 1 uM by Kinomescan method relative to control
Chain of Mitogen-activated protein kinase kinase kinase 2 (Homo sapiens) (Q9Y2U5 whole entry): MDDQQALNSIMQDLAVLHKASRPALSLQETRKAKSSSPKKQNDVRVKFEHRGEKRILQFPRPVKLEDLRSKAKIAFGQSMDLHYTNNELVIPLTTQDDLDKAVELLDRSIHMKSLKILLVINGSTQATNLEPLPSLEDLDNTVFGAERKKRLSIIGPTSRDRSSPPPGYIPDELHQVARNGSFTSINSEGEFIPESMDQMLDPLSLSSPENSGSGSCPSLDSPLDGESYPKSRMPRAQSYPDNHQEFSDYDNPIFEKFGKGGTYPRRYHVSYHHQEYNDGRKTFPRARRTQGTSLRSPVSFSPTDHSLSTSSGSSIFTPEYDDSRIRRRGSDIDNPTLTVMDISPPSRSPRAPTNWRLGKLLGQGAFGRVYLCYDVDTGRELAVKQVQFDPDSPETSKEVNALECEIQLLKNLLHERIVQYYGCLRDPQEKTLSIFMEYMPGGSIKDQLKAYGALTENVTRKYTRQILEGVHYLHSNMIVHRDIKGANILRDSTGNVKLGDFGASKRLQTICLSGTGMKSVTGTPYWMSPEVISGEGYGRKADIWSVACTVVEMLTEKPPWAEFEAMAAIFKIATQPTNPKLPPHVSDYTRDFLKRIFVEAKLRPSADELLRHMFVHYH

[27] = target: Mitogen-activated protein kinase kinase kinase 3 (Homo sapiens) (UniProt Q99759); test: Inhibition of MEKK3 (unknown origin) assessed as residual activity at 1 uM by Kinomescan method relative to control
Chain of Mitogen-activated protein kinase kinase kinase 3 (Homo sapiens) (Q99759 whole entry): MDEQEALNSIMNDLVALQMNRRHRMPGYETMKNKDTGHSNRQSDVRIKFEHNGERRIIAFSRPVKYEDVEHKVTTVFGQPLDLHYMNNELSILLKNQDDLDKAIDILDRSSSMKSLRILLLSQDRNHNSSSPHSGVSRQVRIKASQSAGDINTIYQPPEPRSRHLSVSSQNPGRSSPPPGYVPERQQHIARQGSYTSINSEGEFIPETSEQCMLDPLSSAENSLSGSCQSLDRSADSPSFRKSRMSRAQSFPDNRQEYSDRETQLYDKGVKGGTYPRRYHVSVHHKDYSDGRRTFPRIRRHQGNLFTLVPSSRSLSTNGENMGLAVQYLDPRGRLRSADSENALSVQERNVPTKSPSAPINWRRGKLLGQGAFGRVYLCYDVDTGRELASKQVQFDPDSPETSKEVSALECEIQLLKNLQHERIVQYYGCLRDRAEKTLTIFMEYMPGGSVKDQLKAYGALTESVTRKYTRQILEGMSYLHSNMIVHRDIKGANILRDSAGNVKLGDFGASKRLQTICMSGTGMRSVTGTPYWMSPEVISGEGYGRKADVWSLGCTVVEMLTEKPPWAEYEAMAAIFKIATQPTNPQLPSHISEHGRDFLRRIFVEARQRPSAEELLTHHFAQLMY

Molecule CCOc1nc(Nc2ccc(C(=O)N3CCOCC3)cc2OC)nc2[nH]ccc12 has an Activity [1] of 94.8%, an Activity [2] of 93.5% and an Activity [3] of 86.5%. For the same molecule, the Activity [4] was 90.6%, the Activity [5] was 86.3% and the solubility at 4 h [6] was 127 µg/mL (≈ 320 µM). For the same molecule, the Activity [7] was 69.6%, the Activity [8] was 97.5% and the Activity [9] was 101%. It also gave an Activity [10] of 101%, an Activity [11] of 49.5% and an Activity [12] of 99.2%. The Activity [13] was 122%, the Activity [14] was 96% and the Activity [15] was 105%. The Activity [16] was 102%, the Activity [17] was 97.1% and the Activity [18] was 94.5%. For the same molecule, the Activity [19] was 94%, the Activity [20] was 85.3% and the Activity [21] was 106%. For the same molecule, the IC50 (Cytochrome P450 3A4) was 158 µM, the Activity [22] was 88% and the Activity [23] was 103%. The Activity [24] was 96.8%, the Activity [25] was 98.6% and the Activity [26] was 99.3%. It also gave an Activity [27] of 97%.
